According to patent publication US20160346356A1, “USE OF RNA INTERFERENCE, FARNESOIC ACID AND RECOMBINANT PROTEIN APPROACH TO INDUCE GONAD MATURATION IN CRUSTACEAN SPECIES” (priority 2013, published 2016):
Where two headings read alike, the source gives them in different places.

Columns and labels:
HaVg1 gene expression = conditions: hepatopancreas explant, cited from earlier work
[1] = tested on: expression of vitellogenin; conditions: red crab; cited from earlier work
gonad maturation = experiment: Example 2: FA injection into female shrimp, gonadosomatic index; format: in vivo; conditions: FA 1 μg/g of body weight, day 6
Method: Farnesoic acid (FA) is known to be able to stimulate vitellogenin synthesis in crab, shrimp and lobster. Stock of FA is prepared in ultra-pure mineral oil and female shrimp will be injected with FA.
Fifty female shrimp are injected with FA through the arthropodial membrane (e.g. at 1 μg/g of body weight) 1 day after they molt. After injection, the shrimp is returned to the culture tank for culture. A group of 10 shrimps are randomly selected at a 24-hour interval. 50 μl of hemolymph sample will be taken from the shrimps for analyzing the vitellogenin level by ELISA. On day 6, all the shrimps will be sacrificed and their ovary will be weighted for estimating the gonadosomatic index (GSI), which is the ratio of ovary weight to total body weight. A control group is also setup in which the shrimps are injected with the same volume of mineral oil without any FA. Shrimps injected with FA should have a higher ovary weight to total shrimp weight than the control.

SMILES	increase in HaVg1 gene expression (HaVg1 gene expression; 0.7 μM 20E) [fold]	expression of vitellogenin [1]	increase in HaVg1 gene expression (HaVg1 gene expression; 4.2 μM FA) [fold]	ovary weight to total shrimp weight (GSI) versus control (gonad maturation)
CC(C)(O)CC[C@@H](O)[C@](C)(O)[C@H]1CC[C@@]2(O)C3=CC(=O)[C@@H]4C[C@@H](O)[C@@H](O)C[C@]4(C)[C@H]3CC[C@]12C [20E, 20-hydroxyecdysone]	2.2	–	–	–
CC(C)=CCCC(C)=CCCC(C)=CC(=O)O [FA, farnesoic acid]	–	stimulate	2	higher
